# Measured values from publication PMC11947346, “Synthesis and preclinical evaluation of gastrin releasing peptide receptor antagonist [^18F]MeTz-PEG2-RM26 for positron emission tomography” (EJNMMI Radiopharmacy and Chemistry, 2025).
# What was measured:
# [1] = Experimental: [^18F]MeTz-TCO-PEG2-RM26 (8a) (330 pmol, 1.2 MBq) was added and the tube was vortexed for 2 min. The tube was centrifuged for 20 s to separate the phases. Fractions of each phase were collected and the radioactivity content was measured.
# [2] = system: NMRI mice; test: in vivo
# Experimental: (§1) [^18F]MeTz-PEG2-RM26 (8a) (30 kBq, 40 pmol) was evaluated in NMRI mice to assess the biodistribution in normal organs. A group of NMRI mice (n = 3) was additionally co-injected with 5 nmol of NOTA-PEG2-RM26 to block GRPR. Mice were euthanised at 30 min post-injection (pi) and the organs of interest were collected, weighed, and measured for their radioactivity content. Further, Balb/c nu/nu mice (4 mice in each group) were used to evaluate the uptake in normal organs and the GRPR-expressing tumour model (PC-3). In short, 7 × 10^6 freshly harvested PC-3 cells were suspended in 100 µl sterile PBS and were implanted subcutaneously at the right hind leg of each mouse. […] [^18F]MeTz-PEG2-RM26 (8a) (120 kBq, 48 pmol) was injected and mice were euthanised at predetermined time points of 1 and 2 h pi. An additional group was co-injected with 5 nmol of NOTA-PEG2-RM26 to block GRPR and was euthanized at 2 h pi. The collected organs were weighed and the radioactivity content was measured in each organ.
# [3] = system: GRPR-expressing PC-3 xenografts; test: in vivo; conditions: PC-3 xenografted Balb/c nu/nu mice, 2 h pi, blocked: co-injected with 5 nmol NOTA-PEG2-RM26, mean ± SD, n = 4
# Experimental: as §1
# [4] = in vivo; conditions: mouse, total radioactivity; for tissue uptake at 1 h / tissue uptake at 2 h / tissue to tissue ratio at 1 h / tissue to tissue ratio at 2 h: Balb/c nu/nu, 48 pmol; for tissue uptake dose at 0.5 h / tissue uptake at 0.5 h: NMRI; for tissue uptake at 0.5 h: NMRI mice, 30 min pi
# Experimental: as §1
# [5] = biological target: T1, GRPR-expressing PC-3 cells (Homo sapiens, UniProt P30550); test: In vitro binding to GRPR with and without preblocking of GRPR; type: cell-based; conditions: 8–10 nM radioligand, 1 h at 37 °C, preblocking with 1 µM NOTA-PEG2-RM26 for 10 min at rt, n = 3, P < 0.0001
# T1 construct: investigated using GRPR-expressing PC-3 cells; endogenous in cells; host or cells: PC-3 cells
# T1 sequence (P30550 whole entry): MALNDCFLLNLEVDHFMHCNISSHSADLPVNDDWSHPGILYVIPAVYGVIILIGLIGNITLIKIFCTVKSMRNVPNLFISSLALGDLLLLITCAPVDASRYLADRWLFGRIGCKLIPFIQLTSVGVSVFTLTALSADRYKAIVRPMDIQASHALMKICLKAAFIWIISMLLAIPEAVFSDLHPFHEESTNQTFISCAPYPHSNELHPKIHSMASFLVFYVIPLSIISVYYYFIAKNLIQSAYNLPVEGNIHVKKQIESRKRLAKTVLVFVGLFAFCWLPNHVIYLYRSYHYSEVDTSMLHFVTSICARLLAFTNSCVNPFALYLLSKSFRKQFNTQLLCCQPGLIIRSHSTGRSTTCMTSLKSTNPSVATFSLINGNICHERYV
# Experimental: PC-3 cells (1 × 10^6 cells/well) were seeded on 6-well dishes one day before the experiment. On the day of the experiment, a set of wells was incubated with 1 µM/well of NOTA-PEG2-RM26 for 10 min at rt to block GRPR. After incubation, 8–10 nM (1.2–17.5 kBq) of [^18F]MeTz-PEG2-RM26 (8a) was added to the pretreated and non-treated wells, and the cells were incubated for 1 h at 37 °C. Thereafter, cells were detached using trypsin-EDTA (ethylenediaminetetraacetic acid), collected, and measured for their radioactivity content. The internalisation assay was done after 1 h of incubation as previously described (Varasteh et al. [2013b]).
# [6] = biological target: T2, GRPR (Homo sapiens, UniProt P30550); test: In vitro competitive binding assay against [^125I]I-Tyr^4-BBN; IC50 determination; conditions: PC-3 cells
# T2 construct: investigated using GRPR-expressing PC-3 cells; endogenous in cells; host or cells: PC-3 cells
# T2 sequence (P30550 whole entry): as above
# Experimental: The half maximal inhibitory concentration (IC50) was determined for F-MeTz-PEG2-RM2 (8b), Ga-loaded NOTA-PEG2-RM26 (Varasteh et al. [2013b], [2015]) conjugate was used as a comparator. […] Briefly, 10^5 cells were incubated the day before. […] After incubation, the cells were collected, and their activity was measured.
# [7] = NMRI mice, 30 min pi, 40 pmol (30 kBq), non-blocked, mean ± SD, n = 3–4
smiles,measurement,setting,value
CC1=NNC(c2ccc(CNC(=O)c3ccc(F)nc3)cc2)=C2CCC[C@H](OC(=O)NCCOCCOCCC(=O)N[C@H](Cc3ccccc3)C(=O)N[C@@H](CCC(N)=O)C(=O)N[C@@H](Cc3c[nH]c4ccccc34)C(=O)N[C@@H](C)C(=O)N[C@H](C(=O)NCC(=O)N[C@@H](Cc3c[nH]cn3)C(=O)N[C@@H](CC(C)C)[C@@H](O)CC(=O)N[C@@H](CC(C)C)C(N)=O)C(C)C)CCC12 (stereo partly drawn) [8a],logP,[1],1.6 ± 0.2
same,activity uptake in bone,[2]; [7],0.8 ± 0.1 %IA/g
same,activity uptake in liver,[2]; [7],12.0 ± 0.7 %IA/g
same,in vivo defluorination (stability of the fluorine-carbon bond),[2]; judged from bone uptake in the biological evaluation in mice,no significant signs of in vivo defluorination
same,activity uptake in pancreas,[3],4 ± 1 %IA/g
same,tissue uptake at 1 h,[4]; blood,2.5 ± 0.4 %ID/g
same,tissue uptake at 2 h,[4]; blood,1.8 ± 0.6 %ID/g
same,tissue uptake at 1 h,[4]; bone,0.8 ± 0.2 %ID/g
same,tissue uptake at 2 h,[4]; bone,0.6 ± 0.04 %ID/g
same,tissue uptake at 1 h,[4]; kidneys,2.4 ± 0.1 %ID/g
same,tissue uptake at 2 h,[4]; kidneys,1.9 ± 0.7 %ID/g
same,tissue uptake at 1 h,[4]; liver,12 ± 2 %ID/g
same,tissue uptake at 2 h,[4]; liver,7 ± 2 %ID/g
same,tissue uptake at 1 h,[4]; lungs,1.3 ± 0.1 %ID/g
same,tissue uptake at 2 h,[4]; lungs,1.5 ± 0.8 %ID/g
same,tissue uptake at 1 h,[4]; muscle,0.33 ± 0.04 %ID/g
same,tissue uptake at 2 h,[4]; muscle,0.3 ± 0.1 %ID/g
same,tissue uptake at 1 h,[4]; pancreas,16 ± 1 %ID/g
same,tissue uptake at 2 h,[4]; pancreas,17 ± 4 %ID/g
same,tissue uptake at 1 h,[4]; small intestine,6 ± 3 %ID/g
same,tissue uptake at 2 h,[4]; small intestine,4 ± 3 %ID/g
same,tissue uptake at 1 h,[4]; spleen,0.9 ± 0.2 %ID/g
same,tissue uptake at 2 h,[4]; spleen,0.8 ± 0.6 %ID/g
same,tissue uptake at 1 h,[4]; tumour (PC-3 xenograft),2.4 ± 0.1 %ID/g
same,tissue uptake at 2 h,[4]; tumour (PC-3 xenograft),2.7 ± 0.5 %ID/g
same,tissue to tissue ratio at 1 h,[4]; tumour / blood,0.97 ± 0.1
same,tissue to tissue ratio at 2 h,[4]; tumour / blood,1.5 ± 0.2
same,tissue to tissue ratio at 1 h,[4]; tumour / bone,3.2 ± 0.5
same,tissue to tissue ratio at 2 h,[4]; tumour / bone,5 ± 1
same,tissue to tissue ratio at 1 h,[4]; tumour / kidneys,0.99 ± 0.08
same,tissue to tissue ratio at 2 h,[4]; tumour / kidneys,1.6 ± 0.6
same,tissue to tissue ratio at 1 h,[4]; tumour / liver,0.2 ± 0.02
same,tissue to tissue ratio at 2 h,[4]; tumour / liver,0.4 ± 0.1
same,tissue to tissue ratio at 1 h,[4]; tumour / lungs,1.9 ± 0.1
same,tissue to tissue ratio at 2 h,[4]; tumour / lungs,2.2 ± 1
same,tissue to tissue ratio at 1 h,[4]; tumour / muscle,7.4 ± 0.7
same,tissue to tissue ratio at 2 h,[4]; tumour / muscle,12 ± 4
same,tissue to tissue ratio at 1 h,[4]; tumour / pancreas,0.15 ± 0.02
same,tissue to tissue ratio at 2 h,[4]; tumour / pancreas,0.17 ± 0.05
same,tissue to tissue ratio at 1 h,[4]; tumour / small intestine,0.5 ± 0.2
same,tissue to tissue ratio at 2 h,[4]; tumour / small intestine,0.7 ± 0.3
same,tissue to tissue ratio at 1 h,[4]; tumour / spleen,2.6 ± 0.5
same,tissue to tissue ratio at 2 h,[4]; tumour / spleen,4 ± 2
same,tissue uptake at 1 h,[4]; tumour,2.4 ± 0.1 %ID/g
same,tissue uptake dose at 0.5 h,"[4]; GI tract with content (whole intestine), 40 pmol",38 ± 4 %ID
same,tissue uptake dose at 0.5 h,[4]; GI tract with content,32 ± 4 %ID
same,tissue uptake at 0.5 h,"[4]; blood, 40 pmol, activity uptake in blood, 40 pmol (30 kBq), non-blocked, mean ± SD, n = 3–4",5 ± 1 %ID/g
same,tissue uptake at 0.5 h,"[4]; blood, activity uptake in blood, 40 pmol, blocked: co-injected with 5 nmol NOTA-PEG2-RM26, mean ± SD, n = 3",4 ± 1 %ID/g
same,tissue uptake at 0.5 h,"[4]; bone, 40 pmol, activity uptake in bone, 40 pmol (30 kBq), non-blocked, mean ± SD, n = 3–4",0.8 ± 0.1 %ID/g
same,tissue uptake at 0.5 h,"[4]; bone, activity uptake in bone, 40 pmol, blocked: co-injected with 5 nmol NOTA-PEG2-RM26, mean ± SD, n = 3",0.7 ± 0.1 %ID/g
same,tissue uptake at 0.5 h,"[4]; kidneys, activity uptake in kidneys, 40 pmol, blocked: co-injected with 5 nmol NOTA-PEG2-RM26, mean ± SD, n = 3",3.1 ± 0.6 %ID/g
same,tissue uptake at 0.5 h,"[4]; liver, 40 pmol, activity uptake in liver, 40 pmol (30 kBq), non-blocked, mean ± SD, n = 3–4",12 ± 0.7 %ID/g
same,tissue uptake at 0.5 h,"[4]; liver, activity uptake in liver, 40 pmol, blocked: co-injected with 5 nmol NOTA-PEG2-RM26, mean ± SD, n = 3",12 ± 2 %ID/g
same,tissue uptake dose at 0.5 h,"[4]; rest of the carcass, 40 pmol",15 ± 2 %ID
same,tissue uptake dose at 0.5 h,[4]; rest of the carcass,16 ± 4 %ID
same,tissue uptake at 0.5 h,"[4]; spleen, 40 pmol, activity uptake in spleen, 40 pmol (30 kBq), non-blocked, mean ± SD, n = 3–4",1.4 ± 0.1 %ID/g
same,tissue uptake at 0.5 h,"[4]; spleen, activity uptake in spleen, 40 pmol, blocked: co-injected with 5 nmol NOTA-PEG2-RM26, mean ± SD, n = 3",0.9 ± 0.2 %ID/g
same,tissue uptake dose at 0.5 h,"[4]; whole body, 40 pmol",84 ± 7 %ID
same,activity uptake upon target saturation (GRPR specificity),[5],statistically significant reduction of activity uptake upon target saturation
CC1=NNC(c2ccc(CNC(=O)c3ccc(F)nc3)cc2)=C2CCC[C@H](OC(=O)NCCOCCOCCC(=O)N[C@H](Cc3ccccc3)C(=O)N[C@@H](CCC(N)=O)C(=O)N[C@@H](Cc3c[nH]c4ccccc34)C(=O)N[C@@H](C)C(=O)N[C@H](C(=O)NCC(=O)N[C@@H](Cc3c[nH]cn3)C(=O)N[C@@H](CC(C)C)[C@@H](O)CC(=O)N[C@@H](CC(C)C)C(N)=O)C(C)C)CCC12 (stereo partly drawn) [8b],decrease in binding affinity versus Ga-NOTA-PEG2-RM26 (IC50 ratio),[6],6.8 fold
